Assay results reported in patent US12065442B2, “Tropomyosin receptor kinase (TRK) degradation compounds and methods of use” (Cullgen (Shanghai), Inc., priority 2018, dated 2024).
Entries after “also recorded” stand apart in the source; their conditions may differ.

system: KM12 cells; experiment: Cell viability assay (CellTiter-Glo) in KM12 cells; assay type: cell-based; conditions: 500 nM, 12-point 2-fold serial dilution, 3 days (FIG. 4A)

SMILES | viability of KM12 cells
O=C1CCC(N2C(=O)c3cccc(NCCOCCOCCOCCC(=O)N4CCN(c5ccc(C(=O)Nc6n[nH]c7ccc(Cc8cc(F)cc(F)c8)cc67)c(NC6CCOCC6)c5)CC4)c3C2=O)C(=O)N1 (centres unmarked) [CPD-057, N-(5-(3,5-Difluorobenzyl)-1H-indazol-3-yl)-4-(4-(3-(2-(2-(2-((2-(2,6-dioxopiperidin-3-yl)-1,3-dioxoisoindolin-4-yl)amino)ethoxy)ethoxy)ethoxy)propanoyl)piperazin-1-yl)-2-((tetrahydro-2H-pyran-4-yl)amino)benzamide] | inhibited the viability; also recorded: dose-dependently suppressed viability

same assay, conditions: Homo sapiens, 72 h; Table 2; KM12 cell viability, CellTiter-Glo, 3 days; read-out: IC50

SMILES | IC50 [µM]
O=C1CCC(N2C(=O)c3cccc(NCCCCCCC(=O)N4CCN(c5ccc(C(=O)Nc6n[nH]c7ccc(Cc8cc(F)cc(F)c8)cc67)c(NC6CCOCC6)c5)CC4)c3C2=O)C(=O)N1 (centres unmarked) [CPD-049, N-(5-(3,5-difluorobenzyl)-1H-indazol-3-yl)-4-(4-(7-((2-(2,6-dioxopiperidin-3-yl)-1,3-dioxoisoindolin-4-yl)amino)heptanoyl)piperazin-1-yl)-2-((tetrahydro-2H-pyran-4-yl)amino)benzamide] | 0.073
O=C1CCC(N2C(=O)c3cccc(NCCCCC(=O)N4CCN(c5ccc(C(=O)Nc6n[nH]c7ccc(Cc8cc(F)cc(F)c8)cc67)c(NC6CCOCC6)c5)CC4)c3C2=O)C(=O)N1 (centres unmarked) [CPD-050, N-(5-(3,5-difluorobenzyl)-1H-indazol-3-yl)-4-(4-(5-((2-(2,6-dioxopiperidin-3-yl)-1,3-dioxoisoindolin-4-yl)amino)pentanoyl)piperazin-1-yl)-2-((tetrahydro-2H-pyran-4-yl)amino)benzamide] | 0.028
O=C1CCC(N2C(=O)c3cccc(NCCC(=O)N4CCN(c5ccc(C(=O)Nc6n[nH]c7ccc(Cc8cc(F)cc(F)c8)cc67)c(NC6CCOCC6)c5)CC4)c3C2=O)C(=O)N1 (centres unmarked) [CPD-051, N-(5-(3,5-difluorobenzyl)-1H-indazol-3-yl)-4-(4-(3-((2-(2,6-dioxopiperidin-3-yl)-1,3-dioxoisoindolin-4-yl)amino)propanoyl)piperazin-1-yl)-2-((tetrahydro-2H-pyran-4-yl)amino)benzamide] | 0.011
O=C1CCC(N2C(=O)c3cccc(NCCCCCCCC(=O)N4CCN(c5ccc(C(=O)Nc6n[nH]c7ccc(Cc8cc(F)cc(F)c8)cc67)c(NC6CCOCC6)c5)CC4)c3C2=O)C(=O)N1 (centres unmarked) [CPD-052, N-(5-(3,5-difluorobenzyl)-1H-indazol-3-yl)-4-(4-(8-((2-(2,6-dioxopiperidin-3-yl)-1,3-dioxoisoindolin-4-yl)amino)octanoyl)piperazin-1-yl)-2-((tetrahydro-2H-pyran-4-yl)amino)benzamide] | 0.06
O=C1CCC(N2C(=O)c3cccc(NCCOCCOCCOCCOCCOCCC(=O)N4CCN(c5ccc(C(=O)Nc6n[nH]c7ccc(Cc8cc(F)cc(F)c8)cc67)c(NC6CCOCC6)c5)CC4)c3C2=O)C(=O)N1 (centres unmarked) [CPD-054, N-(5-(3,5-difluorobenzyl)-1H-indazol-3-yl)-4-(4-(1-((2-(2,6-dioxopiperidin-3-yl)-1,3-dioxoisoindolin-4-yl)amino)-3,6,9,12,15-pentaoxaoctadecan-18-oyl)piperazin-1-yl)-2-((tetrahydro-2H-pyran-4-yl)amino)benzamide] | 0.013
O=C1CCC(N2C(=O)c3cccc(NCC(=O)N4CCN(c5ccc(C(=O)Nc6n[nH]c7ccc(Cc8cc(F)cc(F)c8)cc67)c(NC6CCOCC6)c5)CC4)c3C2=O)C(=O)N1 (centres unmarked) [CPD-055, N-(5-(3,5-difluorobenzyl)-1H-indazol-3-yl)-4-(4-((2-(2,6-dioxopiperidin-3-yl)-1,3-dioxoisoindolin-4-yl)glycyl)piperazin-1-yl)-2-((tetrahydro-2H-pyran-4-yl)amino)benzamide] | 0.013
O=C1CCC(N2C(=O)c3cccc(NCCCCCC(=O)N4CCN(c5ccc(C(=O)Nc6n[nH]c7ccc(Cc8cc(F)cc(F)c8)cc67)c(NC6CCOCC6)c5)CC4)c3C2=O)C(=O)N1 (centres unmarked) [CPD-056, N-(5-(3,5-difluorobenzyl)-1H-indazol-3-yl)-4-(4-(6-((2-(2,6-dioxopiperidin-3-yl)-1,3-dioxoisoindolin-4-yl)amino)hexanoyl)piperazin-1-yl)-2-((tetrahydro-2H-pyran-4-yl)amino)benzamide] | 0.012
O=C1CCC(N2C(=O)c3cccc(NCCOCCOCCOCCC(=O)N4CCN(c5ccc(C(=O)Nc6n[nH]c7ccc(Cc8cc(F)cc(F)c8)cc67)c(NC6CCOCC6)c5)CC4)c3C2=O)C(=O)N1 (centres unmarked) [CPD-057, N-(5-(3,5-Difluorobenzyl)-1H-indazol-3-yl)-4-(4-(3-(2-(2-(2-((2-(2,6-dioxopiperidin-3-yl)-1,3-dioxoisoindolin-4-yl)amino)ethoxy)ethoxy)ethoxy)propanoyl)piperazin-1-yl)-2-((tetrahydro-2H-pyran-4-yl)amino)benzamide] | 0.0064
Cc1ncsc1-c1ccc(CNC(=O)[C@@H]2C[C@@H](O)CN2C(=O)[C@@H](NC(=O)COCCOCCOCC(=O)N2CCN(c3ccc(C(=O)Nc4n[nH]c5ccc(Cc6cc(F)cc(F)c6)cc45)c(NC4CCOCC4)c3)CC2)C(C)(C)C)cc1 [CPD-058, (2S,4R)-1-((S)-2-(tert-butyl)-14-(4-(4-((5-(3,5-Difluorobenzyl)-1H-indazol-3-yl)carbamoyl)-3-((tetrahydro-2H-pyran-4-yl)amino)phenyl)piperazin-1-yl)-4,14-dioxo-6,9,12-trioxa-3-azatetradecanoyl)-4-hydroxy-N-(4-(4-methylthiazol-5-yl)benzyl)pyrrolidine-2-carboxamide] | > 1
O=C(CN1CCN(c2cccc(-c3cnc4ccc(N5CCC[C@@H]5c5cccc(F)c5)nn34)n2)CC1)NCCOCCOCCOCCNc1cccc2c1C(=O)N(C1CCC(=O)NC1=O)C2=O (stereo partly drawn) [CPD-059, N-(2-(2-(2-(2-((2-(2,6-dioxopiperidin-3-yl)-1,3-dioxoisoindolin-4-yl)amino)ethoxy)ethoxy)-ethoxy)ethyl)-2-(4-(6-(6-((R)-2-(3-fluorophenyl)pyrrolidin-1-yl)imidazo[1,2-b]pyridazin-3-yl)pyridin-2-yl)piperazin-1-yl)acetamide] | 0.006
Cc1ncsc1-c1ccc(CNC(=O)[C@@H]2C[C@@H](O)CN2C(=O)[C@@H](NC(=O)CCCCCCCNC(=O)CN2CCN(c3ccc(C(=O)Nc4n[nH]c5ccc(Cc6cc(F)cc(F)c6)cc45)c(NC4CCOCC4)c3)CC2)C(C)(C)C)cc1 [CPD-061, (2S,4R)-1-((S)-2-(8-(2-(4-(4-((5-(3,5-Difluorobenzyl)-1H-indazol-3-yl)carbamoyl)-3-((tetrahydro-2H-pyran-4-yl)amino)phenyl)piperazin-1-yl)acetamido)octanamido)-3,3-dimethylbutanoyl)-4-hydroxy-N-(4-(4-methylthiazol-5-yl)benzyl)pyrrolidine-2-carboxamide] | > 1
O=C(CN1CCN(c2ccc(C(=O)Nc3n[nH]c4ccc(Cc5cc(F)cc(F)c5)cc34)c(NC3CCOCC3)c2)CC1)NCCNc1cccc2c1C(=O)N(C1CCC(=O)NC1=O)C2=O (centres unmarked) [CPD-062, N-(5-(3,5-difluorobenzyl)-1H-indazol-3-yl)-4-(4-(2-((2-((2-(2,6-dioxopiperidin-3-yl)-1,3-dioxoisoindolin-4-yl)amino)ethyl)amino)-2-oxoethyl)piperazin-1-yl)-2-((tetrahydro-2H-pyran-4-yl)amino)benzamide] | 0.029
Cc1ncsc1-c1ccc(CNC(=O)[C@@H]2C[C@@H](O)CN2C(=O)[C@@H](NC(=O)CNC(=O)CN2CCN(c3ccc(C(=O)Nc4n[nH]c5ccc(Cc6cc(F)cc(F)c6)cc45)c(NC4CCOCC4)c3)CC2)C(C)(C)C)cc1 [CPD-063, (2S,4R)-1-((S)-2-(2-(2-(4-(4-((5-(3,5-Difluorobenzyl)-1H-indazol-3-yl)carbamoyl)-3-((tetrahydro-2H-pyran-4-yl)amino)phenyl)piperazin-1-yl)acetamido)acetamido)-3,3-dimethylbutanoyl)-4-hydroxy-N-(4-(4-methylthiazol-5-yl)benzyl)pyrrolidine-2-carboxamide] | > 1
O=C(CN1CCN(c2ccc(C(=O)Nc3n[nH]c4ccc(Cc5cc(F)cc(F)c5)cc34)c(NC3CCOCC3)c2)CC1)NCCOCCOCCOCCNc1cccc2c1C(=O)N(C1CCC(=O)NC1=O)C2=O (centres unmarked) [CPD-064, N-(5-(3,5-difluorobenzyl)-1H-indazol-3-yl)-4-(4-(14-((2-(2,6-dioxopiperidin-3-yl)-1,3-dioxoisoindolin-4-yl)amino)-2-oxo-6,9,12-trioxa-3-azatetradecyl)piperazin-1-yl)-2-((tetrahydro-2H-pyran-4-yl)amino)benzamide] | 0.0149
O=C(CN1CCN(c2ccc(C(=O)Nc3n[nH]c4ccc(Cc5cc(F)cc(F)c5)cc34)c(NC3CCOCC3)c2)CC1)NCCOCCOCCOCCOCCOCCNc1cccc2c1C(=O)N(C1CCC(=O)NC1=O)C2=O (centres unmarked) [CPD-065, N-(5-(3,5-difluorobenzyl)-1H-indazol-3-yl)-4-(4-(20-((2-(2,6-dioxopiperidin-3-yl)-1,3-dioxoisoindolin-4-yl)amino)-2-oxo-6,9,12,15,18-pentaoxa-3-azaicosyl)piperazin-1-yl)-2-((tetrahydro-2H-pyran-4-yl)amino)benzamide] | 0.0726

same assay, conditions: Homo sapiens, 72 h; Table 3; KM12 cell viability, CellTiter-Glo, 3 days; read-out: IC50

SMILES | IC50 [µM]
CN1CCN(c2ccc(C(=O)Nc3n[nH]c4ccc(Cc5cc(F)cc(F)c5)cc34)c(NC3CCOCC3)c2)CC1 [Entrectinib, entrectinib, reference compound] | 0.0043
OC1CCN(c2cc(-c3cccc(-c4cnc5ccc(N6CCC[C@@H]6c6cccc(F)c6)nn45)n3)ccn2)CC1 [GNF-8625, reference compound] | 0.0467
O=C(CN1CCN(c2cccc(-c3cnc4ccc(N5CCC[C@@H]5c5cccc(F)c5)nn34)n2)CC1)NCCCCCCCCNc1cccc2c1C(=O)N(C1CCC(=O)NC1=O)C2=O (stereo partly drawn) [TR-102, N-(8-((2-(2,6-dioxopiperidin-3-yl)-1,3-dioxoisoindolin-4-yl)amino)octyl)-2-(4-(6-(6-((R)-2-(3-fluorophenyl)pyrrolidin-1-yl)imidazo[1,2-b]pyridazin-3-yl)pyridin-2-yl)piperazin-1-yl)acetamide] | 0.0444
O=C(CN1CCN(c2cccc(-c3cnc4ccc(N5CCC[C@@H]5c5cccc(F)c5)nn34)n2)CC1)NCCCCCNc1cccc2c1C(=O)N(C1CCC(=O)NC1=O)C2=O (stereo partly drawn) [TR-103, N-(5-((2-(2,6-dioxopiperidin-3-yl)-1,3-dioxoisoindolin-4-yl)amino)pentyl)-2-(4-(6-(6-((R)-2-(3-fluorophenyl)pyrrolidin-1-yl)imidazo[1,2-b]pyridazin-3-yl)pyridin-2-yl)piperazin-1-yl)acetamide] | 0.0135
